Experimental data: PMC4728187, “A fluorescent approach for identifying P2X1 ligands” (Neuropharmacology, 2015)
Several values for one entry are separate records, joined by “and”; a condition that tells them apart may be missing. Equal values may be shown once. Entries after “also recorded” stand apart in the source; their conditions may differ.

Key:
[1] = target: T1, P2X1 receptors (Homo sapiens, UniProt P51575); experiment: Confocal imaging of Alexa-647-ATP cell-surface labelling and competition by pre-treatment
T1 sequence (P51575 1-399): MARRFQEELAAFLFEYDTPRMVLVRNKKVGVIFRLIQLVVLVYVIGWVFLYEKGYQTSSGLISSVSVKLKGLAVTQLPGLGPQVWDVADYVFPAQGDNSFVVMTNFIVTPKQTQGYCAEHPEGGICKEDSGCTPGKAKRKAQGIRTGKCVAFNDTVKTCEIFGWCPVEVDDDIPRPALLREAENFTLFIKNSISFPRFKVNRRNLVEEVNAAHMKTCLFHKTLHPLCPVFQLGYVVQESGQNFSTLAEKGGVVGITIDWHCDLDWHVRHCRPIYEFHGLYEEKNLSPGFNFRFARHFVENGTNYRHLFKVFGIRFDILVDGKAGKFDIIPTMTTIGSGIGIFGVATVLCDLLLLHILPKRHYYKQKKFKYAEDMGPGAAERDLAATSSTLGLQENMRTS
From the text: (§1) Live cells were routinely visualised in phosphate buffered saline (PBS (mM); 155 NaCl, 3.0 Na2HPO4, 1.0 KH2PO4, pH 7.4). Static and time-lapse images were collected using a FV300 laser-scanning confocal microscope with either an Olympus UplanFLN 40 × NA1.30 oil immersion objective and a 60 μm confocal aperture, or a PlanApo 60x NA1.42 oil immersion objective and a 60 μm confocal aperture. Images were exported to ImageJ v1.47 (National Institutes of Health, USA) and the Multi Measure plugin (Optinav Inc, WA, USA) used for analysing regions of interest.

[2] = target: P2X1 with N-terminus substituted by that of P2X2 receptor; parameters: method as in Rettinger and Schmalzing, 2004; Bhargava et al., 2013; details: desensitisation slowed by P2X2 N-terminus substitution; ref Rettinger and Schmalzing, 2004; Bhargava et al., 2013; cited from earlier work
[3] = system: Untransfected HEK 293T cells; experiment: Fluorometric microplate assay with voltage-sensitive dye on untransfected cells; type: cell-based
[4] = target: T1, P2X1 receptors; experiment: Fluorometric microplate assay with voltage-sensitive (membrane potential) dye, FlexStation III; type: cell-based; parameters: expressed in transfected cells; details: for Hill slope (agonist response): agonist concentration-response; for EC50 / pEC50: agonist, peak fluorescence, HEK 293T cells stably expressing P2X1; for Hill slope (inhibition): inhibition of 10 μM ATP responses
Method: In brief, fragments were assessed for both agonist and antagonist activities using HEK 293T cells stably expressing doxycycline-inducible P2X1 receptors incubated for 45 min with 50 μl of a fluorescent dye sensitive to membrane potential (dye FLIPR Membrane Potential Assay Kit, Molecular Devices, Wokingham, UK) that was dissolved in buffer (mM: 115 NaCl, 1 KCl, 1 MgCl2, 1 CaCl2, 10 HEPES, 10 D-Glucose, pH 7.4). Dye-loaded cells were transferred to a FlexStation III (Molecular Devices) where compound applications were made without removing the dye. At recording intervals of 1.2 s, baseline fluorescence was recorded for 20 s, followed by a further 60 s after the addition of compounds. Ultimately two applications were made to the same cells. In the first, agonist activity was assessed by adding 50 μl novel fragment (final concentration = 300 μM) to each well. Following the completion of the first application, a second 50 μl application of 30 μM ATP (final concentration = 10 μM) was then added to the same cells. A response upon the first (fragment) application and an absence of a response on the second (ATP) application indicated agonist activity followed by inhibition as a result of receptor desensitisation.
In addition to testing fragments, the reproducibility of each experiment was assessed by including an ATP concentration–response in the first column and a saline control in the last column of the first application. […] The saline control in the first application also meant that an ATP concentration–response could be performed at the end of the second application. This allowed cell viability to be assessed by comparing the ATP concentration–response at the start of the first application with the ATP concentration–response at the end of the second application. […] Measurements from these concentration-dependence experiments were fitted using Eq. (1) below.
Measurements from the FlexStation III were recorded using the integrated software SoftMax Pro v5.4.5 (Molecular Devices). Analysis of concentration-dependence was performed with GraphPad Prism v5.00 (GraphPad Software, San Diego, CA, USA). Peak fluorescence was measured at a range of ligand concentrations and normalised to the maximum peak fluorescence for the same experiment. The mean and standard error of the mean (S.E.M.) for a series of measurements was plotted against agonist or antagonist concentration and iteratively fitted to the following equation:(1) y=Imin+Fmax−Fmin/1+10^((logR50-x)^nH) where Fmin is the baseline fluorescence, Fmax is the peak fluorescence, R50 is the concentration of ligand needed to generate a half-maximal response, x is the ligand concentration and nH is the Hill slope.

[5] = system: non-induced HEK 293T cells; experiment: Confocal imaging of Alexa-647-ATP labelling on non-induced cells; type: binding; details: 150 nM Alexa-647-ATP
From the text: as §1

[6] = target: T2, P2X7 receptors (Homo sapiens, UniProt Q99572); experiment: Confocal imaging of Alexa-647-ATP labelling, P2X7-expressing cells; type: binding; details: HEK 293T cells expressing P2X7, data not shown
T2 construct: expressed in transfected cells; host or cells: HEK 293T
T2 sequence (Q99572 1-595): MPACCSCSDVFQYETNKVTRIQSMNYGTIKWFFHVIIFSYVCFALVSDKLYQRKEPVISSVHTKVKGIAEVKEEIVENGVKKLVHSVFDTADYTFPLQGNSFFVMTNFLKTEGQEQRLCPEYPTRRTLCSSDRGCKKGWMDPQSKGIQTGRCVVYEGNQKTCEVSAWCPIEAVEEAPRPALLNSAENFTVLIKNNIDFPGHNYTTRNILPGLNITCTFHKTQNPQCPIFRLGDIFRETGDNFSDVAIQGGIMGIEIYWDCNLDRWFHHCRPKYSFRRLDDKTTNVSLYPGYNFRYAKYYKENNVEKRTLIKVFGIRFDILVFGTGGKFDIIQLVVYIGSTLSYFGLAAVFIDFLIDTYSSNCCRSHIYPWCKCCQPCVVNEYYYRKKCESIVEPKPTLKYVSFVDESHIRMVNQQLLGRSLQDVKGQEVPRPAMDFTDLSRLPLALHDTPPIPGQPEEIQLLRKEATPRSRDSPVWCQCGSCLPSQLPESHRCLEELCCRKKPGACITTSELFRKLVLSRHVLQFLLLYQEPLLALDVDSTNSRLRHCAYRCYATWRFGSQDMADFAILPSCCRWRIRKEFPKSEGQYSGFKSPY

[7] = target: T3, P2X4 receptors (Homo sapiens, UniProt Q99571); experiment: Confocal imaging of Alexa-647-ATP labelling, P2X4-expressing cells; type: binding; details: HEK 293T cells expressing P2X4, data not shown
T3 construct: expressed in transfected cells; host or cells: HEK 293T
T3 sequence (Q99571 1-388): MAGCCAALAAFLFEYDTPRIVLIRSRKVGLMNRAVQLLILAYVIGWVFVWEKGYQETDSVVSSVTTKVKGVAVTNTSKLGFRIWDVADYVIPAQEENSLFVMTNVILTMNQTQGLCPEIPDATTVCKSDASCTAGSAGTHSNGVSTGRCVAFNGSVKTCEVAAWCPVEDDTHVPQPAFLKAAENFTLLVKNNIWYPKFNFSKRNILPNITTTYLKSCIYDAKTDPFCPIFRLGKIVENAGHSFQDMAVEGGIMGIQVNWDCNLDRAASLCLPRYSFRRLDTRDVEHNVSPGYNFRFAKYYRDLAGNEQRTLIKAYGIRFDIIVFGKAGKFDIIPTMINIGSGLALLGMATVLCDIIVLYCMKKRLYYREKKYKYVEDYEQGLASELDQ

[8] = target: T1, P2X1 receptors; experiment: Confocal microscopy kinetic analysis of Alexa-647-ATP binding at the cell surface; parameters: expressed in transfected cells
Method: Kinetic parameters were determined according to the following model of a simple bimolecular binding scheme:(2) L+R⇌koffkonLR where L is the free ligand concentration, R is receptor concentration, LR is the ligand–receptor complex and kon and koff are the microscopic association and dissociation rate constants. In a simple scheme such as this, the equilibrium dissociation constant (Kd) is equal to the ratio of dissociation to association rate constants, such that:(3) Kb=k−1/k+1
According to a one site binding model of the type shown, the observed rates of association and dissociation can be used to estimate k+1 and k−1:(4) 1/τoff=k−1 and(5) 1/τon=k+1[L]+k−1 where τon refers to the rate at which fluorescence increases, τoff refers to the rate that fluorescence decreases and [L] is concentration of the ligand used.
Intracellular and background fluorescence was also routinely monitored as a control.

[9] = pre-treated with 5 mM, 150 nM Alexa-647-ATP

With Nc1ncnc2c1ncn2[C@@H]1O[C@H](COP(=O)(O)OP(=O)(O)OP(=O)(O)O)[C@@H](O)[C@H]1O [ATP] as the molecule, how does the “Alexa-647-ATP cell-surface fluorescence after pre-treatment” value (from here on “Alexa-647-ATP cell-surface fluorescence”) [1, 9] read?
The value was “not seen”.

What about the EC50 [2] of the same molecule?
Its EC50 is “low nanomolar”.

For Nc1ncnc2c1ncn2[C@@H]1O[C@H](COP(=O)(O)OP(=O)([O-])OP(=O)([O-])O)[C@@H](O)[C@H]1O.[Mg+2] [MgATP], which “fluorescent response to agonist” value [3] is on record?
Its value is “did not respond”.

What about the “Hill slope (agonist response)” value [4] of the same molecule?
Its value is 1.0 ± 0.1.

And the EC50 [4]?
Its EC50 is 14.1 µM.

What about the pEC50 [4] of the same molecule?
The pEC50 was 4.85 ± 0.07.

Which results are given for O=C(Nc1cc(C(=O)Nc2ccc(S(=O)(=O)O)cc2S(=O)(=O)O)cc(C(=O)Nc2ccc(S(=O)(=O)O)cc2S(=O)(=O)O)c1)Nc1cc(C(=O)Nc2ccc(S(=O)(=O)O)cc2S(=O)(=O)O)cc(C(=O)Nc2ccc(S(=O)(=O)O)cc2S(=O)(=O)O)c1 [NF449]?
Alexa-647-ATP cell-surface fluorescence after pre-treatment ([1]; pre-treated with 250 μM, 150 nM Alexa-647-ATP): not present; also recorded: not seen; Hill slope (inhibition) [4]: 1.1 ± 0.2

With Nc1ncnc2c1ncn2[C@@H]1O[C@H](COP(=O)(O)OP(=O)([O-])OP(=O)([O-])O)[C@@H](O)[C@H]1O.[Na+].[Na+] [NaATP] as the molecule, how does the “Alexa-647-ATP cell-surface fluorescence” value [1, 9] read?
The value was “not present”.

And the “fluorescent response to agonist” value [3]?
Its value is “did not respond”.

And the “Hill slope (agonist response)” value [4]?
The value was 0.9 ± 0.2.

What about the EC50 [4] of the same molecule?
The EC50 was 5.49 µM.

And the pEC50 [4]?
The pEC50 was 5.26 ± 0.09.

For Cc1ccc(C(=O)Nc2ccc(S(=O)(=O)O)c3cc(S(=O)(=O)O)cc(S(=O)(=O)O)c23)cc1NC(=O)c1cccc(NC(=O)Nc2cccc(C(=O)Nc3cc(C(=O)Nc4ccc(S(=O)(=O)O)c5cc(S(=O)(=O)O)cc(S(=O)(=O)O)c45)ccc3C)c2)c1 [suramin], which “Alexa-647-ATP cell-surface fluorescence” value ([1]; pre-treatment, concentration not printed, 150 nM Alexa-647-ATP) is on record?
Its value is “still seen; also recorded: no competition was seen”.

And the “Alexa-647-ATP cell-surface fluorescence” value ([1]; pre-treatment, concentration not printed, 150 nM Alexa-647-ATP, listed as Suramin)?
The value was “did not alter cell-surface fluorescence”.

What about the “Hill slope (inhibition)” value [4] of the same molecule?
The value was 1.5 ± 0.7.

For Alexa-647-ATP, which “cell-surface fluorescence after addition of ligand” value ([1]; 150 nM Alexa-647-ATP, P2X1-expressing HEK 293T cells) is on record?
Its value is “rapid increase in cell-surface fluorescence”.

What about the “cell permeability (fluorescence inside labelled cells)” value ([1]; live HEK 293T cells, confocal) of the same molecule?
The value was “not cell-permeable”.

And the cell-surface fluorescence [5]?
The cell-surface fluorescence was “not present”.

What about the EC50 [2] of the same molecule?
The EC50 was “low nanomolar”.

What about the cell-surface fluorescence [6] of the same molecule?
Its cell-surface fluorescence is “could not detect any measureable fluorescence”.

And the cell-surface fluorescence [7]?
Its cell-surface fluorescence is “could not detect any measureable fluorescence”.

What about the kobs ([8]; 0.5 μM Alexa-647-ATP) of the same molecule?
Its kobs is 0.79 ± 0.08 min⁻¹.

And the kobs ([8]; 5 μM Alexa-647-ATP)?
Its kobs is 5.86 ± 0.58 min⁻¹.

What about the “koff, direct measurement of dissociation” value ([8]; after rapid washing with PBS, mono-exponential fits) of the same molecule?
Its value is 0.00667 s⁻¹ and 0.00678 s⁻¹.

What about the “association rate (kon)” value ([8]; slope of 1/τon (kobs) vs concentration) of the same molecule?
The value was 1.142e+06 M⁻¹ s⁻¹.

What about the “dissociation rate (koff)” value ([8]; y-axis intercept of 1/τon (kobs) vs concentration) of the same molecule?
The value was 0.136 s⁻¹.

What about the “Hill slope (agonist response)” value [4] of the same molecule?
Its value is 1.1 ± 0.1.

What about the EC50 [4] of the same molecule?
The EC50 was 5.75 µM.

What about the pEC50 [4] of the same molecule?
Its pEC50 is 5.24 ± 0.04.
